From ChEMBL document CHEMBL5584278, “Deciphering the Selectivity of CBL-B Inhibitors Using All-Atom Molecular Dynamics and Machine Learning” (ACS Med Chem Lett, 2024)

How the values were obtained:
[1] = Inhibition of C-CBL (unknown origin); design: species or system Homo sapiens
Homo sapiens = species: Homo sapiens; assay: Selectivity ratio of IC50 for c-CBL (unknown origin) to IC50 for CBL-B (unknown origin)
[2] = biological target: E3 ubiquitin-protein ligase CBL-B (Homo sapiens, UniProt Q13191); assay: Inhibition of CBL-B (unknown origin)
Sequence of E3 ubiquitin-protein ligase CBL-B (Q13191 whole entry): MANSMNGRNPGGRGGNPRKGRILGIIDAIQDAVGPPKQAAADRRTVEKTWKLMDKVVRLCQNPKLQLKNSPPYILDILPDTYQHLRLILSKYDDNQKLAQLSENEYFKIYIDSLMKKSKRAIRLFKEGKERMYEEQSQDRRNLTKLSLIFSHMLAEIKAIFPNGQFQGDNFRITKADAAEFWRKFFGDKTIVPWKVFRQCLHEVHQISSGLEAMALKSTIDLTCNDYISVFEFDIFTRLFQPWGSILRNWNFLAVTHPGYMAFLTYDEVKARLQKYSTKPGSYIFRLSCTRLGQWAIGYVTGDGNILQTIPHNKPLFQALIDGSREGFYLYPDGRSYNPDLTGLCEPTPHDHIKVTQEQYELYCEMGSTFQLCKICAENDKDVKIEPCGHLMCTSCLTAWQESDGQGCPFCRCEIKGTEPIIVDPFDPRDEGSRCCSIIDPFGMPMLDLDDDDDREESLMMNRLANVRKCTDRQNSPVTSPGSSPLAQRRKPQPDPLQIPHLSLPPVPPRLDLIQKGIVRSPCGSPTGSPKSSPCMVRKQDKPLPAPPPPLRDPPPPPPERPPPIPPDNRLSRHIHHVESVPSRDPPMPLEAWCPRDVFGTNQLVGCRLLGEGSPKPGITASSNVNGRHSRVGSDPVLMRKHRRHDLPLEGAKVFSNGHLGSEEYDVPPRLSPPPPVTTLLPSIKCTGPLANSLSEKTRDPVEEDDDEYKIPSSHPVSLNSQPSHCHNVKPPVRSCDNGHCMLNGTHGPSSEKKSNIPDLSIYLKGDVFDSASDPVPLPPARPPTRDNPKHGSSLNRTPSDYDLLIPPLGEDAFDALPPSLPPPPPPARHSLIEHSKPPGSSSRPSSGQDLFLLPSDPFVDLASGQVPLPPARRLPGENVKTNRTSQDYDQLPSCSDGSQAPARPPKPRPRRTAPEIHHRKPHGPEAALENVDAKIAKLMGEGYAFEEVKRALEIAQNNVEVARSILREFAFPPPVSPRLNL

| Structure (SMILES) | IC50 [1] | Ratio IC50 (Homo sapiens) | IC50 [2] |
| --- | --- | --- | --- |
| COCCNCc1cc(C(F)(F)F)c2oc(-c3cccc(-c4ccc(F)cc4-c4nncn4C)c3)nc2c1 | ~10000 nM | 50 | ~200 nM |
| C[C@H](c1cc(C(F)(F)F)c2nc(-c3cccc(CC4(c5nncn5C)COC4)c3)[nH]c2c1)N1CCC2(CC2)C1 | ~10000 nM | 50 | ~200 nM |
| CC1CC(c2cccc(-c3nc4cc(CN5CCC[C@H](C)C5)cc(C(F)(F)F)c4[nH]3)c2)(c2nncn2C)C1 (some centres not stated) | – | – | ~200 nM |
| CC1CC(c2cccc(-c3nc4c(C(F)(F)F)cc(CN5CCC[C@H](C)C5)cc4[nH]3)c2)(c2nncn2C)C1 (some centres not stated) | ~10000 nM | 50 | – |
| Cn1cnnc1[C@H](c1cccc(N2Cc3c(Cl)cc(CNC4(C)CCC4)cc3C2=O)c1)[C@H]1C[C@@H](F)C1 | ~1100 nM | 6.5 | ~170 nM |

Further molecules by falling IC50 [1], results first:

| IC50 [1] | Ratio IC50 (Homo sapiens) | IC50 [2] | Structure (SMILES) |
| --- | --- | --- | --- |
| ~165 nM | 10 | ~16.5 nM | CC1CC(c2cccc(N3C(=O)c4cc(CNC5(C)CCC5)cc5c(F)ccc3c45)c2)(c2nncn2C)C1 (configuration not stated) |
| ~150 nM | 6 | ~25 nM | CO[C@H]1C[C@@](c2cccc(N3Cc4c(cc(CNC5(C)CCC5)cc4C(F)F)C3=O)c2)(c2nncn2C)C1 |
| ~120 nM | 6 | ~21 nM | Cn1cnnc1C1(c2cccc(N3Cc4c(cc(CNC5(C)CCC5)cc4C(F)(F)F)C3=O)c2)CC2(CC(F)(F)C2)C1 |
| ~60 nM | 10 | ~6 nM | Cn1cnnc1CC1(c2cccc(N3CC4=C(C(F)(F)F)C=C(CN5CCC(C)(F)CC5)CN4C3=O)c2)COC1 |
| ~20 nM | 4 | ~5 nM | CC1CC(c2cccc(N3Cc4c(cc(CN5CCC[C@H](C)C5)cc4C(F)(F)F)C3=O)c2)(c2nncn2C)C1 (some centres not stated) |
